Read-outs that look alike come from different tables or passages of the source.
Target: T1, PDE4B2 (Homo sapiens, UniProt Q07343)
T1 construct: purchased BPS bioscience
Assay: In vitro PDE4B2 enzyme inhibitory activity (AMP-Glo)
Format: biochemical

[1] = PDE4B2 enzyme inhibition, read-out: PDE4B2 IC50
[2] = read-out: IC50 values of PDE4B2 enzyme inhibition

T1 sequence (Q07343 1-564 isoform Q07343-2): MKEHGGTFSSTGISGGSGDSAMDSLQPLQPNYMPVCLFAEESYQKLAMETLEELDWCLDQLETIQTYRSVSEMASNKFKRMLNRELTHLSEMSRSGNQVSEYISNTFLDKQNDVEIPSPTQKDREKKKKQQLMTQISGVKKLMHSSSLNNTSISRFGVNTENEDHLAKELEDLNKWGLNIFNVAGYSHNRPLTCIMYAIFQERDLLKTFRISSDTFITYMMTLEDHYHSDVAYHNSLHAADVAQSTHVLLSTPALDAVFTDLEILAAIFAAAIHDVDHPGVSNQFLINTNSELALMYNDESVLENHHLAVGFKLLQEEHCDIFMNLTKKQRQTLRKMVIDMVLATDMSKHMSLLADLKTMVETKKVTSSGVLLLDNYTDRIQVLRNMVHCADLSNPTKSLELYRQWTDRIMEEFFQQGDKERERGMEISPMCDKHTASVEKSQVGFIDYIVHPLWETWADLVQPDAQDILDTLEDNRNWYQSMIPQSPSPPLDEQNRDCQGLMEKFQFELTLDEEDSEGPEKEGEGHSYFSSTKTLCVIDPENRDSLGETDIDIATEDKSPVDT

| IC50 [1] | IC50 [2] | SMILES |
| --- | --- | --- |
| 2 to 5 nM |  | [O-][S+]1CCc2nc(N3CC(O)(c4ccc(Cl)cc4)C3)nc(NC3(CO)CCC3)c21 (racemic) [Compound 1, (R/S)-2-(3-(4-chlorophenyl)-3-hydroxyazetidin-1-yl)-4-((1-(hydroxymethyl)cyclobutyl)amino)-6,7-dihydrothieno[3,2-d]pyrimidine 5-oxide] |
| 2 to 5 nM |  | COc1ccc(C2(O)CN(c3nc4c(c(NC5(CO)CCC5)n3)[S+]([O-])CC4)C2)cc1 (racemic) [Compound 2, (R/S)-2-(3-hydroxy-3-(4-methoxyphenyl)azetidin-1-yl)-4-((1-(hydroxymethyl)cyclobutyl)amino)-6,7-dihydrothieno[3,2-d]pyrimidine 5-oxide] |
| ≤ 2 nM |  | COc1cc(C2(O)CN(c3nc4c(c(NC5(CO)CCC5)n3)[S+]([O-])CC4)C2)ccc1Cl (racemic) [Compound 3, (R/S)-2-(3-(4-chloro-3-methoxyphenyl)-3-hydroxyazetidin-1-yl)-4-((1-(hydroxymethyl)cyclobutyl)amino)-6,7-dihydrothieno[3,2-d]pyrimidine 5-oxide] |
| 2 to 5 nM |  | COc1ccc(C2(O)CN(c3nc4c(c(NC5(CO)CCC5)n3)[S+]([O-])CC4)C2)cc1Cl (racemic) [Compound 4, (R/S)-2-(3-(3-chloro-4-methoxyphenyl)-3-hydroxyazetidin-1-yl)-4-((1-(hydroxymethyl)cyclobutyl)amino)-6,7-dihydrothieno[3,2-d]pyrimidine 5-oxide] |
| 2 to 5 nM |  | [O-][S+]1CCc2nc(N3CC(O)(c4ccc(C(F)(F)F)cc4)C3)nc(NC3(CO)CCC3)c21 (racemic) [Compound 7, (R/S)-2-(3-hydroxy-3-(4-(trifluoromethyl)phenyl)azetidin-1-yl)-4-((1-(hydroxymethyl)cyclobutyl)amino)-6,7-dihydrothieno[3,2-d]pyrimidine 5-oxide] |
| 2 to 5 nM |  | COc1ccc(C2(O)CN(c3nc4c(c(Nc5ccc(CC(=O)O)cc5)n3)[S+]([O-])CC4)C2)cc1Cl (racemic) [Compound 8, (R/S)-2-(4-((2-(3-(3-chloro-4-methoxyphenyl)-3-hydroxyazetidin-1-yl)-5-oxido-6,7-dihydrothieno[3,2-d]pyrimidin-4-yl)amino)phenyl)acetic acid] |
| 2 to 5 nM |  | [O-][S+]1CCc2nc(N3CC=C(c4ccc(OC(F)F)cc4)C3)nc(NC3(CO)CCC3)c21 (racemic) [Compound 14, (R/S)-2-(3-(4-(difluoromethoxy)phenyl)-2,5-dihydro-1H-pyrrol-1-yl)-4-((1-(hydroxymethyl)cyclobutyl)amino)-6,7-dihydrothieno[3,2-d]pyrimidine 5-oxide] |
| 2 to 5 nM |  | [O-][S+]1CCc2nc(C3=CCN(c4ncc(Cl)cn4)CC3)nc(NC3(CO)CCC3)c21 (racemic) [Compound 16, (R/S)-2-(1-(5-chloropyrimidin-2-yl)-1,2,3,6-tetrahydropyridin-4-yl)-4-((1-(hydroxymethyl)cyclobutyl)amino)-6,7-dihydrothieno[3,2-d]pyrimidine 5-oxide] |
| 2 to 5 nM |  | COc1ccc2c(c1)CN(c1nc3c(c(NC4(CO)CCC4)n1)[S+]([O-])CC3)C2 (racemic) [Compound 26, (R/S)-4-((1-(hydroxymethyl)cyclobutyl)amino)-2-(5-methoxyisoindolin-2-yl)-6,7-dihydrothieno[3,2-d]pyrimidine 5-oxide] |
| 2 to 5 nM |  | N#Cc1ccc2c(c1)CN(c1nc3c(c(NC4(CO)CCC4)n1)[S+]([O-])CC3)C2 (racemic) [Compound 27, (R/S)-2-(4-((1-(hydroxymethyl)cyclobutyl)amino)-5-oxido-6,7-dihydrothieno[3,2-d]pyrimidin-2-yl)isoindoline-5-carbonitrile] |
| ≤ 2 nM |  | CC(C)(O)c1ccc2c(c1)CN(c1nc3c(c(NC4(CO)CCC4)n1)[S+]([O-])CC3)C2 (racemic) [Compound 29, (R/S)-4-((1-(hydroxymethyl)cyclobutyl)amino)-2-(5-(2-hydroxypropan-2-yl)isoindolin-2-yl)-6,7-dihydrothieno[3,2-d]pyrimidine 5-oxide] |
| 2 to 5 nM |  | CS(=O)(=O)Nc1ccc2c(c1)CN(c1nc3c(c(NC4(CO)CCC4)n1)[S+]([O-])CC3)C2 (racemic) [Compound 31, (R/S)—N-(2-(4-((1-(hydroxymethyl)cyclobutyl)amino)-5-oxido-6,7-dihydrothieno[3,2-d]pyrimidin-2-yl)isoindolin-5-yl)methanesulfonamide] |
| 2 to 5 nM |  | COc1ccc2c(c1Cl)CN(c1nc3c(c(NC4(CO)CCC4)n1)[S+]([O-])CC3)C2 (racemic) [Compound 35, (R/S)-2-(4-chloro-5-methoxyisoindolin-2-yl)-4-((1-(hydroxymethyl)cyclobutyl)amino)-6,7-dihydrothieno[3,2-d]pyrimidine 5-oxide] |
| ≤ 2 nM | < 1 nM | COc1cc(C2(OC)CN(c3nc4c(c(NC5(CO)CCC5)n3)[S+]([O-])CC4)C2)ccc1Cl (racemic) [Compound 79, (R/S)-2-(3-(4-chloro-3-methoxyphenyl)-3-methoxyazetidin-1-yl)-4-((1-(hydroxymethyl)cyclobutyl)amino)-6,7-dihydrothieno[3,2-d]pyrimidine 5-oxide] |
| 2 to 5 nM |  | [O-][S+]1CCc2nc(N3CC(O)(c4ccc(Cl)c(F)c4)C3)nc(NC3(CO)CCC3)c21 (racemic) [Compound 80, (R/S)-2-(3-(4-chloro-3-fluorophenyl)-3-hydroxyazetidin-1-yl)-4-((1-(hydroxymethyl)cyclobutyl)amino)-6,7-dihydrothieno[3,2-d]pyrimidine 5-oxide] |
| 2 to 5 nM |  | COc1cc(C2(O)CN(c3nc4c(c(NC5CCOCC5)n3)[S+]([O-])CC4)C2)ccc1Cl (racemic) [Compound 81, (R/S)-2-(3-(4-chloro-3-methoxyphenyl)-3-hydroxyazetidin-1-yl)-4-((tetrahydro-2H-pyran-4-yl)amino)-6,7-dihydrothieno[3,2-d]pyrimidine 5-oxide] |
| ≤ 2 nM | < 1 nM | COC1(c2ccc(Cl)c(F)c2)CN(c2nc3c(c(NC4(CO)CCC4)n2)[S+]([O-])CC3)C1 (racemic) [Compound 82, (R/S)-2-(3-(4-chloro-3-fluorophenyl)-3-methoxyazetidin-1-yl)-4-((1-(hydroxymethyl)cyclobutyl)amino)-6,7-dihydrothieno[3,2-d]pyrimidine 5-oxide] |
| ≤ 2 nM | < 1 nM | COC1(c2ccc(Cl)cc2)CN(c2nc3c(c(NC4(CO)CCC4)n2)[S+]([O-])CC3)C1 (racemic) [Compound 83, (R/S)-2-(3-(4-chlorophenyl)-3-methoxyazetidin-1-yl)-4-((1-(hydroxymethyl)cyclobutyl)amino)-6,7-dihydrothieno[3,2-d]pyrimidine 5-oxide] |
| ≤ 2 nM |  | CC(C)(O)c1ccc2c(c1)CN(c1nc3c(c(NC4CCOCC4)n1)[S+]([O-])CC3)C2 (racemic) [Compound 84, (R/S)-2-(5-(2-hydroxypropan-2-yl)isoindolin-2-yl)-4-((tetrahydro-2H-pyran-4-yl)amino)-6,7-dihydrothieno[3,2-d]pyrimidine 5-oxide] |
| ≤ 2 nM |  | [O-][S+]1CCc2nc(N3Cc4ccc(Cl)cc4C3)nc(NC3CCOCC3)c21 (racemic) [Compound 85, (R/S)-2-(5-chloroisoindolin-2-yl)-4-((tetrahydro-2H-pyran-4-yl)amino)-6,7-dihydrothieno[3,2-d]pyrimidine 5-oxide] |
| ≤ 2 nM | < 1 nM | COC1(c2ccc(Cl)c(F)c2)CN(c2nc3c(c(NC4CCOCC4)n2)[S+]([O-])CC3)C1 (racemic) [Compound 86, (R/S)-2-(3-(4-chloro-3-fluorophenyl)-3-methoxyazetidin-1-yl)-4-((tetrahydro-2H-pyran-4-yl)amino)-6,7-dihydrothieno[3,2-d]pyrimidine 5-oxide] |
| 2 to 5 nM |  | [O-][S+]1CCc2nc(N3Cc4ccc(OC(F)F)cc4C3)nc(NC3(CO)CCC3)c21 (racemic) [Compound 87, (R/S)-2-(5-(difluoromethoxy)isoindolin-2-yl)-4-((1-(hydroxymethyl)cyclobutyl)amino)-6,7-dihydrothieno[3,2-d]pyrimidine 5-oxide] |
| ≤ 2 nM | < 1 nM | COC1(c2ccc(Cl)cc2)CN(c2nc3c(c(NC4CCOCC4)n2)[S+]([O-])CC3)C1 (racemic) [Compound 88, (R/S)-2-(3-(4-chlorophenyl)-3-methoxyazetidin-1-yl)-4-((tetrahydro-2H-pyran-4-yl)amino)-6,7-dihydrothieno[3,2-d]pyrimidine 5-oxide] |
| 2 to 5 nM |  | [O-][S+]1CCc2nc(N3Cc4ccc(C(F)F)cc4C3)nc(NC3(CO)CCC3)c21 (racemic) [Compound 91, (R/S)-2-(5-(difluoromethyl)isoindolin-2-yl)-4-((1-(hydroxymethyl)cyclobutyl)amino)-6,7-dihydrothieno[3,2-d]pyrimidine 5-oxide] |
| ≤ 2 nM | < 1 nM | [2H]C([2H])([2H])OC1(c2ccc(Cl)cc2)CN(c2nc3c(c(NC4(CO)CCC4)n2)[S+]([O-])CC3)C1 (racemic) [Compound 92, (R/S)-2-(3-(4-chlorophenyl)-3-(methoxy-d3)azetidin-1-yl)-4-((1-(hydroxymethyl)cyclobutyl)amino)-6,7-dihydrothieno[3,2-d]pyrimidine 5-oxide] |
| ≤ 2 nM | < 1 nM | [2H]C([2H])([2H])OC1(c2ccc(Cl)cc2)CN(c2nc3c(c(NC4CCOCC4)n2)[S+]([O-])CC3)C1 (racemic) [Compound 94, (R/S)-2-(3-(4-chlorophenyl)-3-(methoxy-d3)azetidin-1-yl)-4-((tetrahydro-2H-pyran-4-yl)amino)-6,7-dihydrothieno[3,2-d]pyrimidine 5-oxide] |
| ≤ 2 nM | < 1 nM | COc1ccc(C2(OC)CN(c3nc4c(c(NC5(CO)CCC5)n3)[S+]([O-])CC4)C2)cc1 (racemic) [Compound 100, (R/S)-4-((1-(hydroxymethyl)cyclobutyl)amino)-2-(3-methoxy-3-(4-methoxyphenyl)azetidin-1-yl)-6,7-dihydrothieno[3,2-d]pyrimidine 5-oxide] |

From US20260242393A1, “Preparation Method for and Use of Dihydrothienopyrimidine Derivative” (Innovstone Therapeutics Limited, priority 2023, published 2026)
